Test results published in BindingDB's records for patent US10626113 (Columbia University, 2020).

Molecular target: cGMP-specific 3',5'-cyclic phosphodiesterase (Homo sapiens, UniProt O76074)
Assay: PDE5 Inhibition Assay
Description: Test compounds were supplied as liquid solutions of 10 mM concentration in DMSO. Sildenafil, used as a standard was dissolved in DMSO. […] 0.1 ng of enzyme was used per reaction, and the substrate was 100 nM FAM-cGMP.Assay conditions: A series of dilutions of the test compounds were prepared with 10% DMSO in assay buffer and 5 μl of the dilution was added to a 50 μl reaction so that the final concentration of DMSO is 1% in all of reactions. The enzymatic reactions were conducted at room temperature for 60 minutes in a 50 μl mixture containing PDE assay buffer, 100 nM FAM-cAMP or 100 nM FAM-cGMP, a PDE enzyme, and the test compound. After the enzymatic reaction, 100 μl of a binding solution (1:100 dilution of the binding agent with the binding agent diluent) was added to each reaction and the reaction was performed at room temperature for 60 minutes. […] Fluorescence intensity is converted to fluorescence polarization using the Tecan Magellan6 software. The fluorescence polarization data were analyzed using the computer software, Graphpad Prism. The fluorescence polarization (FPt) in absence of the compound in each data set was defined as 100% activity. In the absence of PDE and the compound, the value of fluorescent polarization (FPb) in each data set was defined as 0% activity. The percent activity in the presence of the compound was calculated according to the following equation: % activity=(FP−FPb)/(FPt−FPb)×100%, where FP=the fluorescence polarization in the presence of the compound.

IC50 [nM] | Compound
593 | COc1ccc(Nc2c3c(nc4ccc(C#N)cc24)CCN(C(C)=O)C3)cc1Cl [US10899756, Compound S]
425 | COc1cc(Nc2c3c(nc4ccc(C#N)cc24)CCN(C(C)=O)C3)ccc1Cl [US10899756, Compound T]
26.9 | COc1ccc(C(C)Nc2c3c(nc4ccc(C#N)cc24)CCN(C(C)=O)C3)cc1Cl (centres undefined) [US10899756, Compound V]

Compound | IC50 [nM]
COc1ccc(CCNc2c3c(nc4ccc(C#N)cc24)CCN(C(C)=O)C3)cc1Cl [US10899756, Compound W] | 10.6
